Results: patent publication EP4559927A1, “CARRIER PEPTIDE FRAGMENT AND USE THEREOF” (Toagosei Co., Ltd., priority 2022, dated 2025)
Primed or numbered codes have the meaning given here. FAM = 5(6)-carboxyfluorescein; FAM″ = C-terminal FAM dye

Test system: NSC-34 cells
Assay: Evaluation on cell membrane permeability by flow cytometry
Format: cell-based, mouse
Details: median fluorescence intensity of FAM (detector FL2), 25 µM construct, 0.42% DMSO, 20 hours at 37°C, 5% CO2
Protocol: As the eukaryotic cells, NSC-34 cells (mouse motor neuron-like hybrid cell line) were used and the cell membrane permeability of the samples 1 to 7 was analyzed. In Examples 1 to 7, the prepared sample solutions 1 to 7 were used, respectively, and in Example 8, a FAM solution was used.
The NSC-34 cells were cultured in 10% fetal bovine serum (FBS)-containing Dulbecco's modified Eagle's medium (DMEM (Cat No. 044-29765, manufactured by FUJIFILM Wako Pure Chemical Corporation)), which is a normal culture medium.
The NSC-34 cells that adhered to a culture plate were cleaned with PBS and then, a 0.25%-trypsin/EDTA solution was added thereto, and incubation was performed for three minutes at 37°C. After the incubation, the aforementioned 10% FBS-containing DMEM was added to deactivate trypsin and then, five-minute centrifugal separation was performed at 150 × g to precipitate the cells. After the supernatant generated by the centrifugal separation was removed, the 10% FBS-containing DMEM was added to the precipitate (cell pellet) to prepare a cell suspension of about 2 × 10^5 cells/mL. The cell suspension was added by 1 mL to a well of a commercially available six-hole (well) plate (manufactured by AGC TECHNO GLASS Co., Ltd.) so as to seed the cell (about 2 × 10^5 cells/well). In addition, the 6 mM sample solution 1 was diluted with the 10% FBS-containing DMEM to prepare the sample solution 1 in which the concentration of the sample 1 was 50 µM. Then, 1 mL of the 50 µM sample solution 1 was added to the well (that is, so that the concentration of the sample 1 became 25 µM and the DMSO concentration became 0.42% in the culture solution in the well). After that, the cell was incubated for 20 hours at 37°C under a 5% CO2 condition.
After the 20-hour incubation, the culture supernatant was removed from the well and the cells in the well were cleaned twice with 1 mL of PBS. Next, 200 µL of the 0.25% trypsin/EDTA solution was added to the well and the incubation was performed for three minutes at 37°C. After the incubation, 400 µL of the 10% FBS-containing DMEM was added to the well to deactivate the trypsin. Subsequently, the cell suspension in the well was transferred to a tube and the cells were collected. After that, 600 µL of PBS was added further to the well to clean the well. Then, PBS in the well was transferred to the tube, so that the cells remaining in the well were collected in the tube. This tube was subjected to five-minute centrifugal separation at 4°C under a condition of 210 × g. After the centrifugal separation, the supernatant was removed and the precipitate (cell pellet) was suspended (cleaned) with 1 mL of PBS, which was followed by the centrifugal separation under the same condition as that described above. After this operation was repeated twice, the supernatant was removed and thus, the cells (cell pellet) cultured in a culture medium containing the sample 1 were obtained.
Regarding the obtained cells (cell pellet), the cell membrane permeability of the sample 1 was analyzed using a flow cytometer. As the flow cytometer, On-Chip Flowcytometer (manufactured by On-Chip Biotechnologies Co., LTD.) was used.
For such an analysis, the obtained cell pellet was suspended with 100 µL of on-chip T buffer to prepare a cell suspension for analysis.
Using the aforementioned flow cytometer, gating based on forward scatter (FSC) and side scatter (SSC) was performed to set a gate about a cell group to be analyzed, and the fluorescence intensity was measured about the cell group in this gate. Note that the analysis was performed so that the cell group contained at least 10000 cells or more. The fluorescence intensity was measured using a fluorescence detector FL2 of the flow cytometer (optimum detection wavelength around 543 nm) capable of detecting the fluorescence wavelength of FAM. […]

Substance	MFI
5(6)-carboxyfluorescein [Example 8]	11
Ac-KKRTLRKDDEERKKR-FAM (Ac-KKRTLRKDDEERKKR-{FAM}) [Example 5]	14.8
Ac-KKRTLRKDEDERKKR-FAM [Example 6]	15.2
Ac-KKRTLRKDERKKR-FAM (Ac-KKRTLRKDERKKR-{FAM}) [Example 1]	16.3
Ac-KKRTLRKEDEDEDRKKR-FAM (Ac-KKRTLRKEDEDEDRKKR-{FAM}) [Example 7]	14.3
Ac-KKRTLRKEDEDRKKR-FAM (Ac-KKRTLRKEDEDRKKR-{FAM″}) [Example 3]	13.8
Ac-KKRTLRKEDRKKR-FAM (Ac-KKRTLRKEDRKKR-{FAM}) [Example 2]	15.7
Ac-KKRTLRKEEDDRKKR-FAM (Ac-KKRTLRKEEDDRKKR-{FAM}) [Example 4]	14.3
